What was measured:
[1] = system: primary human dermal fibroblasts (HDF); experiment: Reprogramming efficiency of OSKM-transduced somatic cells to iPSCs (HDF); format: cell-based
From the text: (§1) In order to examine whether 4,6-di-4-morpholinyl-N-(4-nitrophenyl)-1,3,5-triazin-2-amine (MHY1485, CAS Number 326914-06-1), which is an mTOR (mammalian target of rapamycin) activator, has an influence on reprogramming efficiency, reprogramming factors (OCT4, SOX2, c-Myc, KLF4; OSKM) were transduced into primary umbilical vein endothelial cells (HUVEC, ATCC #PCS-100-010), primary human dermal fibroblasts (HDF, ATCC # PCS-201-012), and human placenta derived cells (HPC) via the Sendai virus (SeV) system as shown in FIG. 1a.
(§2) Twenty-four hours after transduction, the cells were cultured for one week in a placenta-derived cell conditioned medium (PCCM) or growth medium (GM). MHY1485 was added at a dose of 2 μg/mL once per 24 hours for three weeks. After one week of the culturing in a placenta-derived cell conditioned medium (PCCM) or growth medium (GM), the cells were induced to undergo reprogramming for two weeks in Matrigel-coated culture dishes containing mTeSR medium together with MHY1485 under a general pluripotent stem cell culturing condition.

[2] = system: CXCR2, mTOR, cMYC, LC3a/b, p62 in HUVEC, HDF, and HPC cells; experiment: Western blot of protein expression in somatic cells with or without MHY1485; format: cell-based, human
From the text: as §1, §2
Western blotting identified the expression of CXCR2, mTOR, and cMYC. Autophagic flux activity was identified […].

[3] = system: primary umbilical vein endothelial cells (HUVEC); experiment: Reprogramming efficiency of OSKM-transduced somatic cells to iPSCs (HUVEC); format: cell-based, human
From the text: as §1, §2

[4] = system: HUVEC, HDF, and HPC cells; experiment: Reprogramming efficiency, HUVEC, HDF and HPC taken together (total of 9 dishes); format: cell-based, human
From the text: as §1, §2
HUVEC, HDF, and HPC cells were induced to undergo reprogramming by treatment with MHY1485 or in PCCM in three dishes for each cell line.

[5] = system: human placenta derived cells (HPC); experiment: Reprogramming efficiency of OSKM-transduced somatic cells to iPSCs (HPC); format: cell-based
From the text: as §1, §2

[6] = system: LC3a/b in HUVEC, HDF, and HPC cells; experiment: Immunofluorescence assay of LC3a/b (autophagy) in somatic cells; format: cell-based, human; settings: rapamycin as control
[7] = GM + MHY1485 (2 μg/mL once per 24 hours for three weeks)
[8] = treatment with MHY1485 vs no treatment

## O=[N+]([O-])c1ccc(Nc2nc(N3CCOCC3)nc(N3CCOCC3)n2)cc1 [MHY1485, 4,6-di-4-morpholinyl-N-(4-nitrophenyl)-1,3,5-triazin-2-amine]
[1]; [7]
  Reprogramming efficiency (%): 0.04%
[1]; hPCCM + MHY1485 (2 μg/mL)
  Reprogramming efficiency (%): 0.07%
[2]; treatment with MHY1485
  expression level of p62 (indicates inactivation of autophagic flux): increased
[2]; [8]
  expression of CXCR2: increased
  expression of LC3a/b: decreased
  expression of cMYC: increased
  expression of mTOR: increased
[3]; [7]
  Reprogramming efficiency (%): 0.13%
[3]; hPCCM + MHY1485 (2 μg/mL)
  Reprogramming efficiency (%): 0.39%
[4]; GM + MHY1485, HUVEC, HDF, HPC, three dishes each, total of 9 dishes
  Reprogramming efficiency (%): 0.17%
[4]; MHY1485 treatment vs PCCM medium, FIG. 4 and Table 2
  effect of increasing reprogramming efficiency, compared to the employment of PCCM medium: significantly higher
[4]; all the cells (HUVEC, HDF, HPC), FIGS. 2a to 2c
  reprogramming efficiency compared to untreated cells: increased
[5]; [7]
  Reprogramming efficiency (%): 0.35%
[5]; hPCCM + MHY1485 (2 μg/mL)
  Reprogramming efficiency (%): 0.92%
[6]
  expression of LC3a/b (inhibition of autophagy): decreased
